Reference: PubChem BioAssay (NCI)
Where “and” joins values, the source holds several entries; their conditions need not be identical. Identical values can stand only once.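 All cell lines were grown in 96-well plates and treated with compound for 48 hours. The concentration for 50% growth inhibition is given as GI50. TGI denotes the concentration required for complete inhibition of growth.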

Legend:
Test in all cases: NCI tumour cell line growth inhibition, 48 h
HOP-92 NSCLC = tested on: HOP-92 NSCLC
SF-268 CNS = tested on: SF-268 CNS
HCT-116 colon = tested on: HCT-116 colon
OVCAR-4 ovarian = tested on: OVCAR-4 ovarian
NCI-H226 lung = tested on: NCI-H226 lung
UACC-257 melanoma = tested on: UACC-257 melanoma
786-0 renal = tested on: 786-0 renal
CAKI-1 renal = tested on: CAKI-1 renal
OVCAR-5 ovarian = tested on: OVCAR-5 ovarian
LOX IMVI melanoma = tested on: LOX IMVI melanoma

SMILES	TGI (HOP-92 NSCLC) [µM]	TGI (SF-268 CNS) [µM]	TGI (HCT-116 colon) [µM]	TGI (OVCAR-4 ovarian)	TGI (NCI-H226 lung)	TGI (UACC-257 melanoma)	TGI (786-0 renal) [µM]	TGI (CAKI-1 renal)	TGI (OVCAR-5 ovarian)	TGI (LOX IMVI melanoma) [µM]	GI50 (SF-268 CNS) [µM]	GI50 (OVCAR-5 ovarian) [µM]	GI50 (HCT-116 colon) [µM]	GI50 (OVCAR-4 ovarian) [µM]	GI50 (NCI-H226 lung) [µM]	GI50 (UACC-257 melanoma) [µM]	GI50 (786-0 renal) [µM]	GI50 (LOX IMVI melanoma) [µM]	GI50 (CAKI-1 renal) [µM]	GI50 (HOP-92 NSCLC) [µM]
COC[C@@H](N=CN1CCc2cc(OC)c(OC)cc2[C@@H]1C)C(C)(C)C	> 100	> 100	> 100	> 100 µM	> 100 µM	> 100 µM	> 100	> 100 µM												
NCCCOCC(=O)O	> 100	> 100	> 100	> 100 µM	> 100 µM	> 100 µM	> 100		> 100 µM											
COC(=O)C(C(=O)C(=O)Nc1ccc(C(F)(F)F)cc1[N+](=O)[O-])c1csc(-n2nc(-c3ccccc3)cc2-c2ccccc2)n1 (stereo unspecified)			> 100	> 100 µM	> 100 µM	> 100 µM	> 100	> 100 µM	> 100 µM	> 100										
CCOC(=O)C1=C(C(=O)c2ccc(C)cc2)C(c2cccc([N+](=O)[O-])c2)C(C(=O)c2ccc(C)cc2)=C(C(=O)OCC)N1		46.1	19.6	84.6 µM	35.2 µM	41.4 µM	32.9	43.5 µM	34.7 µM	31.4										
O=C1c2ccc([N+](=O)[O-])cc2-c2c1c1ccccc1c(=O)n2CCCNCCCNCCCn1c2c(c3ccc([N+](=O)[O-])cc3c1=O)C(=O)c1ccccc1-2		12.8	2.91	2.88 µM	8.53 µM	59.6 µM	7.21	20.8 µM	11.3 µM	16	0.988	3.05	0.933	1.06	1.57	18	1.2	2.7	3.33	
O=C(c1ccccc1)C1CCCCN1C(=O)c1ccccc1 (stereo unspecified)		> 100	> 100	> 100 µM	> 100 µM	> 100 µM	> 100	> 100 µM												
Oc1cc(O)c(Oc2cccc(O)c2O)c(O)c1	> 100	> 100		31.6 µM		> 100 µM	> 100	> 100 µM	> 100 µM											
CCCn1c(SC)nc(COC(=O)NC)c1COC(=O)NC		> 100	> 100	> 100 µM	> 100 µM	> 100 µM	> 100	> 100 µM	> 100 µM	> 100										
O=C(O)C1C2CCC(O2)C1C(=O)N1CCCCC1 (stereo unspecified)	7.33	28.9	22.6	24.4 µM	16.6 µM	32.4 µM	15		62.8 µM	23.3										
O=[N+]([O-])c1ccc(S(=O)Cc2ccccc2)c([N+](=O)[O-])c1 (stereo unspecified)		26.6	2.55	2.93 µM	5.3 µM	3.96 µM	17.3	3.85 µM	29.9 µM	2.94	13.4	14.5	1.29	1.5	2.27	1.76	4.91	1.6	1.85	
COc1ccccc1/C=C/[N+](=O)[O-]		5.12	2.9	37.7 µM	11.7 µM	4.32 µM	3.35	46.6 µM	14.1 µM	2.86	2.39	3.55	1.51	3.56	3.41	1.84	1.82	1.4	2.95	
CC1CCP(=O)(c2ccccc2)c2ccccc21 (stereo unspecified)			46.7	> 100 µM	> 100 µM	> 100 µM	> 100		> 100 µM	58										
CCN(CC)CCNc1ccc([N+](=O)[O-])c2sc3ccccc3c(=O)c12	3.36	2.5	1.56	2.81 µM	6.6 µM	3.12 µM	2.35		15.2 µM	1.79	1.08	3.47	0.36	1.35	2.06	1.37	0.958	0.421		1.26
O=C(c1ccc2ccccc2c1)c1c(C(F)(F)F)n([O-])c2cc(F)c(F)cc2[n+]1=O	3.46	19.5	3.02	27.2 µM	44.2 µM	6.45 µM	3.23	3.97 µM	4.4 µM		3.36	2.01	1.5	13	4.86	2.53	1.74		1.82	1.84
CCc1n(Cc2ccc3ccccc3n2)cc[n+]1Cc1ccc2ccccc2n1	0.521	14.2	29.7	10.4 µM	30.8 µM	0.695 µM	> 100		22.9 µM	13.2	0.453	1.48	1.35	0.0378	2.56	0.0796	31.2	0.596		0.0183
CCCCS(=O)CCC(N)C(=O)O (stereo unspecified)		> 100	> 100	> 100 µM	> 100 µM	> 100 µM	> 100	> 100 µM	> 100 µM											
Clc1ccc(Cc2nc3ccccc3s2)c(Cl)c1		30.5		27 µM	39.1 µM	34.8 µM	27.8	31.2 µM	38.7 µM	31.4										
COc1cc(/C=C2\CCC/C(=C\c3cc(OC)c(O)c(OC)c3)C2=O)cc(OC)c1O		> 100		75 µM and > 100 µM	47.9 µM and > 100 µM	75 µM and > 100 µM		4.38 µM and 7.62 µM	7.4 µM and 63.3 µM			5.22	2.56	8.24	3.91	2.92	3.9	1.53	2.51	
O=C(Nc1cccc([N+](=O)[O-])c1)C(=O)C(C(=O)c1ccccc1-c1ccccc1)C1OC(=O)c2ccccc21 (stereo unspecified)	32.8	75.8	26.6		25.9 µM	93.4 µM	38.9		39.5 µM	36.6										
CCCCC1CC(c2cccc([N+](=O)[O-])c2)=NO1 (stereo unspecified)	> 100	> 100	> 100	> 100 µM	> 100 µM	> 100 µM	> 100	> 100 µM	> 100 µM											
O=C(/C=C/c1ccccc1)CC1OC(=O)c2ccccc21 (stereo unspecified)	> 100	> 100	> 100	> 100 µM	83.1 µM	> 100 µM	> 100		> 100 µM	> 100										
CC1CC#CCOC(=O)CCCC1=O (stereo unspecified)		> 100	> 100	> 100 µM	> 100 µM		> 100			> 100										
CS(=O)(=O)OCCN1CCN(C(=O)c2cccc3c(Nc4ccc(S(=O)(=O)N=C(N)N)cc4)c4ccccc4nc23)CC1	> 100	> 100	> 100	> 100 µM	> 100 µM	> 100 µM	> 100	> 100 µM	> 100 µM											
Cc1ccc(-c2cc(-c3ccco3)c(C#N)c(=O)[nH]2)cc1	> 100	> 100	> 100	> 100 µM	> 100 µM	> 100 µM	> 100		> 100 µM	> 100										
CN(C)c1ccc([O-])cc1.CN(C)c1ccc([O-])cc1.CN(C)c1ccc([O-])cc1.CN(C)c1ccc([O-])cc1.[Ti+4]		> 100	> 100	> 100 µM	> 100 µM	> 100 µM	> 100	> 100 µM	> 100 µM	> 100	> 100	> 100	> 100	75.3	> 100	> 100	> 100	76.9	> 100	
CC(=O)N[C@@H]1C(O)CN2C(=O)C(=O)O[C@H](C(O)CO)[C@@H]12 (stereo partly specified)	> 100	> 100	> 100			> 100 µM	> 100		> 100 µM	> 100										
Nc1nc2c(c(=O)[nH]1)NC(CO)CN2 (stereo unspecified)			> 100		> 100 µM	64.3 µM	> 100			36.7										
O=C(O)COc1ccc(O)c2c1C(=O)CCCC2=O		> 100	> 100	> 100 µM		> 100 µM	> 100	> 100 µM	> 100 µM	> 100										
CC(C)CNCC(O)COc1ccc(C(C)(C)c2ccc(OCC(O)CNCC(C)C)cc2)cc1 (stereo unspecified)	9.17	17.4	3.59	21.4 µM	26.2 µM	3.26 µM	3.03		20.2 µM	3.04	3.9	6.1	1.79	6.52	8.27	1.73	1.5	1.57		1.48
